Series [1] concerns hairless Guinea pigs. Nature of the series: Evaluation of the increase of moisture content in the skin (Corneometer, acetone-damaged skin barrier). Format: in vivo. The settings on record: flank, 200 μl applied after 30 min acetone patch; for moisture content of the stratum corneum, 6 h after sample application: relative to content directly after acetone treatment = 100, 6 h; for moisture content of the stratum corneum, 12 h after sample application: relative to content directly after acetone treatment = 100, 12 h; for moisture content of the stratum corneum, 24 h after sample application: relative to content directly after acetone treatment = 100, 24 h; for moisture content of the stratum corneum, 48 h after sample application: relative to content directly after acetone treatment = 100, 48 h. The procedure: The degree of the increase of moisture content in the skin was measured for the compounds obtained in the Examples. The increase of moisture content in the skin was measured by dividing 50 hairless Guinea pigs into 10 groups, and applying the compounds obtained in the Examples to each group.
Specifically, after the skin barrier was damaged by patching acetone using Finn chamber for 30 minutes to the flank site of the experiment animals, 200 μl of each experimental substance was applied to the patched site, then the moisture content of the stratum corneum of the site was measured using Corneometer and then evaluated. Apparatus measurements were carried out directly after and 6 hours, 12 hours, 24 hours and 48 hours after removing the acetone patch. Changes of moisture content in the skin were evaluated relative to the content measured directly after the acetone treatment, which was set to be 100.

The nature of series [2]: Evaluation of moisture retaining ability in dry conditions (weight change, 18° C., RH 20%). Format: physicochemical. To be noted: initial moisture content 60%, constant temperature and humidity chamber 18° C. The protocol:
Moisture retaining ability was evaluated and compared for the compounds obtained in the Examples.
Specifically, samples were prepared such that the moisture content of the compounds obtained in the Examples was 60%, and while the samples were kept in a constant temperature and humidity chamber (18° C., RH 20%), the weight change of the samples was observed over time, thereby enabling evaluation of the changes in moisture content.

As to “pentaerythritol glycolic ester ethoxylate lauryl ether (pentaerythritol laureth-4 carboxylate) [Example 5]”, in series [1], the “moisture content of the stratum corneum, 6 h after sample application” value (shortened to “moisture content … 6 h after sample application”) amounted to 98; the “moisture content of the stratum corneum, 12 h after sample application” value (shortened to “moisture content … 12 h after sample application”) is reported as 99; the “moisture content of the stratum corneum, 24 h after sample application” value (“moisture content … 24 h after sample application” below) is given as 103; the “moisture content of the stratum corneum, 48 h after sample application” value (from here on “moisture content … 48 h after sample application”) amounted to 105. Moreover, in series [2], the “moisture content of sample, 1 h” value was determined as 58%; the “moisture content of sample, 2 h” value came to 55%; the “moisture content of sample, 4 h” value is listed as 49%; the “moisture content of sample, 6 h” value was determined as 41%.
For `OCC(O)CO` [Glycerol, reference compound], in series [1], the “moisture content … 6 h after sample application” value stood at 109; the “moisture content … 12 h after sample application” value came to 113; the “moisture content … 24 h after sample application” value was 115; the “moisture content … 48 h after sample application” value is listed as 117. In series [2], the “moisture content of sample, 1 h” value is reported as 57%; the “moisture content of sample, 2 h” value was 50%; the “moisture content of sample, 4 h” value came out at 41%; the “moisture content of sample, 6 h” value is recorded as 25%.
On to “pentaerythritol ethoxylate (3/4 EO/OH) glycolic ester ethoxylate octyl ether(pentaerythritol ethoxylate (3/4 EO/OH) capreth-4 carboxylate) [Example 17]”, for which, in series [1], the “moisture content … 6 h after sample application” value is listed as 103; the “moisture content … 12 h after sample application” value amounted to 106; the “moisture content … 24 h after sample application” value is on record as 108; the “moisture content … 48 h after sample application” value is recorded as 104. Further, in series [2], the “moisture content of sample, 1 h” value is on record as 57%; the “moisture content of sample, 2 h” value is on record as 53%; the “moisture content of sample, 4 h” value is recorded as 47%; the “moisture content of sample, 6 h” value is given as 38%.
With “pentaerythritol ethoxylate (3/4 EO/OH) glycolic ester ethoxylate cetyl ether (pentaerythritol ethoxylate (3/4 EO/OH) ceteth-4 carboxylate) [Example 22]”, in series [1], the “moisture content … 6 h after sample application” value amounted to 100; the “moisture content … 12 h after sample application” value was determined as 105; the “moisture content … 24 h after sample application” value stood at 109; the “moisture content … 48 h after sample application” value amounted to 115. In series [2], the “moisture content of sample, 1 h” value is listed as 56%; the “moisture content of sample, 2 h” value came to 52%; the “moisture content of sample, 4 h” value came out at 48%; the “moisture content of sample, 6 h” value was found to be 43%.
Consider “pentaerythritol ethoxylate (15/4 EO/OH) glycolic ester ethoxylate lauryl ether (pentaerythritol ethoxylate (15/4 EO/OH) laureth-6 carboxylate) [Example 34]”, for which, in series [1], the “moisture content … 6 h after sample application” value was 105; the “moisture content … 12 h after sample application” value turned out to be 110; the “moisture content … 24 h after sample application” value turned out to be 116; the “moisture content … 48 h after sample application” value amounted to 114. In series [2], the “moisture content of sample, 1 h” value was 58%; the “moisture content of sample, 2 h” value came out at 56%; the “moisture content of sample, 4 h” value is on record as 49%; the “moisture content of sample, 6 h” value is 45%.
In the case of “pentaerythritol ethoxylate (15/4 EO/OH) glycolic ester ethoxylate cetyl ether (pentaerythritol ethoxylate (15/4 EO/OH) ceteth-10 carboxylate) [Example 38]”, in series [1], the “moisture content … 6 h after sample application” value is listed as 108; the “moisture content … 12 h after sample application” value is given as 111; the “moisture content … 24 h after sample application” value is given as 112; the “moisture content … 48 h after sample application” value amounted to 114. For the same molecule, in series [2], the “moisture content of sample, 1 h” value came to 58%; the “moisture content of sample, 2 h” value is given as 52%; the “moisture content of sample, 4 h” value came to 44%; the “moisture content of sample, 6 h” value is listed as 29%.
With “pentaerythritol ethoxylate (15/4 EO/OH) glycolic ester ethoxylate hexyl ether (pentaerythritol ethoxylate (15/4 EO/OH) hexeth-4 carboxylate) [Example 29]”, in series [1], the “moisture content … 6 h after sample application” value stood at 106; the “moisture content … 12 h after sample application” value came to 109; the “moisture content … 24 h after sample application” value is given as 111; the “moisture content … 48 h after sample application” value turned out to be 109. Moreover, in series [2], the “moisture content of sample, 1 h” value worked out at 57%; the “moisture content of sample, 2 h” value is reported as 55%; the “moisture content of sample, 4 h” value is reported as 50%; the “moisture content of sample, 6 h” value is 43%.
In the case of “pentaerythritol glycolic ester ethoxylate cetyl ether (pentaerythritol ceteth-10 carboxylate) [Example 10]”, in series [1], the “moisture content … 6 h after sample application” value amounted to 101; the “moisture content … 12 h after sample application” value is recorded as 105; the “moisture content … 24 h after sample application” value is given as 109; the “moisture content … 48 h after sample application” value worked out at 113. For the same molecule, in series [2], the “moisture content of sample, 1 h” value was determined as 58%; the “moisture content of sample, 2 h” value is given as 57%; the “moisture content of sample, 4 h” value was 50%; the “moisture content of sample, 6 h” value is listed as 44%.
Turning to “pentaerythritol ethoxylate (15/4 EO/OH) glycolic ester ethoxylate stearyl ether (pentaerythritol ethoxylate (15/4 EO/OH) steareth-10 carboxylate) [Example 42]”, in series [1], the “moisture content … 6 h after sample application” value is recorded as 106; the “moisture content … 12 h after sample application” value is 110; the “moisture content … 24 h after sample application” value was 109; the “moisture content … 48 h after sample application” value was found to be 111.

Source of the values: patent US8501807B2, “Pentaerythritol derivatives” (priority 2004, dated 2013).
